Reference: patent EP0803251B1, “Immediate release pH-independent solid dosage form of cisapride” (JANSSEN PHARMACEUTICA N.V., priority 1996, dated 1997)
One block for each molecule: values may come before it.

Key:
[1] = Dissolution of salts of cisapride in artificial gastric juice; type: physicochemical
[2] = Dissolution of tablets at different pH-values, USP test <711>, USP-2 dissolution apparatus (paddle); type: physicochemical; details: conclusion in words
Method: The dissolution of tablets comprising cisapride-(L)-tartrate having the composition and prepared as described in Example 1 was compared with tablets comprising cisapride monohydrate instead of cisapride-(L)-tartrate (the rest of the composition and the preparation being the same) at different pH-values.
The test tablet was brought in a glass container containing 900 ml of the specified buffer at a temperature of 37 °C. The stirring is performed by a paddle at a rotational speed of 50 rpm (rotations per minute). This test is s set forth in USP test <711> in a USP-2 dissolution apparatus. This latter test is described in US Pharmacopeia XXII, pp 1578-1579. a) pH = ± 1.5 (HCl : 0.1 N)

clinical = details: in vivo; for tmax: po
Method: A standard breakfast consists of four slices of bread, one slice of ham, one slice of cheese, butter, jelly and two cups of coffee or tea with if desired milk and/or sugar, was served. […] Thereafter, subjects could resume their usual diet.
The trial medication was taken with 100 ml water.
Blood samples were taken until 48 h post-dosing.
AUClast area under the plasma concentration-time curve from time 0 to the last time point (last quantifiable concentration, calculated by linear trapezoidal summation. AUC∞ area under the plasma concentration-time extrapolated to infinity t½term terminal half-life, defined as 0.693/Sz

[3] = formulations containing cisapride-(L)-tartrate release cisapride in a racemic form; cited from earlier work
[4] = human, in vivo
Text: (AUC is the abbreviation of Area Under the Curve, which is an indication of the amount of active ingredient that is present in the blood).

Molecule: COc1cc(N)c(Cl)cc1C(=O)NC1CCN(CCCOc2ccc(F)cc2)CC1OC (racemic) [reference compound]
dissolution compared with cisapride monohydrate ([1]; salt forms of cisapride): dissolve slower than the cisapride monohydrate itself

dissolution in artificial gastric juice ([1]; compared with other salts of cisapride): better dissolution | dissolution compared with cisapride monohydrate ([2]; 0.1 N HCl (pH = ± 1.5)): comparable | dissolution compared with cisapride monohydrate ([2]; pH 4.5): clearly better | dissolution compared with cisapride monohydrate ([2]; pH = 6.5): clearly superior | tmax (clinical; human): 2.1 ± 0.7 h | tmax (clinical; human, tmax): 1.4 ± 0.4 h | bioequivalence of the tartrate and monohydrate formulations (clinical): bioequivalent | bioequivalence with respect to the total exposure (AUC∞) (clinical): bioequivalence is demonstrated | influence of fed or fasting conditions on absorption, peak levels and total exposure (clinical): little influence
Molecule: COc1cc(N)c(Cl)cc1C(=O)NC1CCN(CCCOc2ccc(F)cc2)CC1OC (racemic) [cisapride-(L)-tartrate]

Molecule: (+)-cisapride-(L)-tartrate
dissolution rates of the diastereomeric salt forms [3]: equal dissolution rates

ratio of AUC in fed state over AUC in fasted state [4]: about 1.35 | higher exposure of cisapride in comparison with the fasting conditions (clinical; human): 29% | higher peak levels of cisapride in comparison with the fasting conditions (clinical; human): 33% | tmax (clinical; human): 2.3 ± 0.6 h | tmax (clinical; human, tmax): 1.7 ± 0.5 h | bioequivalence of the tartrate and monohydrate formulations (clinical): bioequivalent
Molecule: COc1cc(N)c(Cl)cc1C(=O)N[C@H]1CCN(CCCOc2ccc(F)cc2)C[C@H]1OC (relative stereo) [cisapride monohydrate, cis-4-amino-5-chloro-N-[1-[3-(4-fluorophenoxy)propyl]-3-methoxy-4-piperidinyl]-2-methoxybenzamide, reference compound]

Molecule: (-)-cisapride-(L)-tartrate
dissolution rates of the diastereomeric salt forms [3]: equal dissolution rates
